Test results taken from ChEMBL document CHEMBL3868606, “Novel 5-nitropyrimidine derivatives bearing endo-azabicyclic alcohols/amines as potent GPR119 agonists” (Bioorg Med Chem, 2017).

What was measured:
[1] = target: T1, Glucose-dependent insulinotropic receptor (Homo sapiens, UniProt Q8TDV5); assay: Agonist activity at human GPR119 expressed in HEK293 cells assessed as stimulation of cAMP level measured after 60 mins by HTRF assay; format: functional, cell-based
T1 sequence (Q8TDV5 whole entry): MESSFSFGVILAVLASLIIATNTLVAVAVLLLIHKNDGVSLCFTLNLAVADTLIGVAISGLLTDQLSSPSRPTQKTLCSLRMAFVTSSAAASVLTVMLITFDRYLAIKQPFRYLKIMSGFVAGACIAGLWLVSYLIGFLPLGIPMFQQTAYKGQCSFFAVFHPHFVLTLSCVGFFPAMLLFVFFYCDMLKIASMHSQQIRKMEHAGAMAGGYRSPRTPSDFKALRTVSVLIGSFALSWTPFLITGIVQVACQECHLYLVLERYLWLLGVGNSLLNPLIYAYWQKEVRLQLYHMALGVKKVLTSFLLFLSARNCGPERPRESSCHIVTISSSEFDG

[2] = target: T2, Glucose-dependent insulinotropic receptor (Homo sapiens) (UniProt Q8TDV5); assay: Agonist activity at human GPR119 expressed in HEK293 cells assessed as stimulation of cAMP level measured after 60 mins by HTRF assay relative to OEA; format: functional, cell-based
T2 sequence (whole entry): T1 sequence (Q8TDV5 whole entry)

EC50 [1] | Emax [2] | SMILES
> 2000 nM | 37.2% | CC(C)(C)OC(=O)N1[C@@H]2CC[C@@H]1CC(Nc1ncnc(Oc3ccccc3Cl)c1[N+](=O)[O-])C2 (relative stereo)
1.5 nM | 116% | CC(C)(C)OC(=O)N1[C@@H]2CC[C@@H]1CC(Oc1ncnc(Nc3ccc(S(C)(=O)=O)cc3F)c1[N+](=O)[O-])C2 (relative stereo)
0.6 nM | 103% | CC(C)OC(=O)N1[C@@H]2CC[C@@H]1CC(Oc1ncnc(Nc3ccc(S(C)(=O)=O)cc3F)c1[N+](=O)[O-])C2 (relative stereo)
> 2000 nM | 32.5% | CCOC(=O)N1[C@@H]2CC[C@@H]1CC(Nc1ncnc(Nc3ccc(S(C)(=O)=O)cc3F)c1[N+](=O)[O-])C2 (relative stereo)
205 nM | 59% | CC(C)(C)OC(=O)N1[C@@H]2CC[C@@H]1CC(Nc1ncnc(Nc3ccc(C#N)cc3Cl)c1[N+](=O)[O-])C2 (relative stereo)

Second part, the compound before the results:

SMILES | EC50 [1] | Emax [2]
CC(C)(C)OC(=O)N1[C@@H]2CC[C@@H]1CC(Nc1ncnc(Nc3ccc(S(C)(=O)=O)cc3F)c1[N+](=O)[O-])C2 (relative stereo) | 1.5 nM | 99%
CS(=O)(=O)c1ccc(Nc2ncnc(NC3C[C@H]4CC[C@H](C3)N4S(C)(=O)=O)c2[N+](=O)[O-])c(F)c1 (relative stereo) | > 2000 nM | 49.5%
CCOC(=O)N1[C@@H]2CC[C@@H]1CC(Oc1ncnc(Nc3ccc(S(C)(=O)=O)cc3F)c1[N+](=O)[O-])C2 (relative stereo) | 1.4 nM | 116%
CC(C)(C)OC(=O)N1[C@@H]2CC[C@@H]1CC(Nc1ncnc(Nc3ccccc3C#N)c1[N+](=O)[O-])C2 (relative stereo) | > 2000 nM | 46.2%
CC(C)(C)OC(=O)N1[C@@H]2CC[C@@H]1CC(Oc1ncnc(Oc3ccccc3Cl)c1[N+](=O)[O-])C2 (relative stereo) | 44.2 nM | 89.8%
CS(=O)(=O)c1ccc(Nc2ncnc(OC3C[C@H]4CC[C@H](C3)N4S(C)(=O)=O)c2[N+](=O)[O-])c(F)c1 (relative stereo) | 1.6 nM | 117%
CC(C)(C)OC(=O)N1[C@@H]2CC[C@@H]1CC(Nc1ncnc(Nc3ccc(C#N)cc3F)c1[N+](=O)[O-])C2 (relative stereo) | 1.3 nM | 114%
CS(=O)(=O)c1ccc(Nc2ncnc(NC3C[C@H]4CC[C@H](C3)N4S(=O)(=O)c3ccc(F)cc3)c2[N+](=O)[O-])c(F)c1 (some centres undefined) | > 2000 nM | 24.8%
CC(C)OC(=O)N1[C@@H]2CC[C@@H]1CC(Nc1ncnc(Nc3ccc(S(C)(=O)=O)cc3F)c1[N+](=O)[O-])C2 (relative stereo) | 6.2 nM | 54.5%
CS(=O)(=O)c1ccc(Nc2ncnc(OC3C[C@H]4CC[C@H](C3)N4S(=O)(=O)c3ccc(F)cc3)c2[N+](=O)[O-])c(F)c1 (some centres undefined) | 3.5 nM | 88.8%
CS(=O)(=O)c1ccc(Nc2ncnc(NC3C[C@H]4CC[C@H](C3)N4C(=O)OCC3CC3)c2[N+](=O)[O-])c(F)c1 (relative stereo) | > 2000 nM | 25.1%
CS(=O)(=O)c1ccc(Nc2ncnc(OC3C[C@H]4CC[C@H](C3)N4C(=O)OCC3CC3)c2[N+](=O)[O-])c(F)c1 (relative stereo) | > 2000 nM | 21.3%
